# Test results: patent US9371319B2, “Pyrrolopyridineamino derivatives as MPS1 inhibitors” (priority 2011, dated 2016)
# Molecular target: T1, full length MPS1 (Homo sapiens, UniProt P33981)
# T1 sequence (P33981 1-857): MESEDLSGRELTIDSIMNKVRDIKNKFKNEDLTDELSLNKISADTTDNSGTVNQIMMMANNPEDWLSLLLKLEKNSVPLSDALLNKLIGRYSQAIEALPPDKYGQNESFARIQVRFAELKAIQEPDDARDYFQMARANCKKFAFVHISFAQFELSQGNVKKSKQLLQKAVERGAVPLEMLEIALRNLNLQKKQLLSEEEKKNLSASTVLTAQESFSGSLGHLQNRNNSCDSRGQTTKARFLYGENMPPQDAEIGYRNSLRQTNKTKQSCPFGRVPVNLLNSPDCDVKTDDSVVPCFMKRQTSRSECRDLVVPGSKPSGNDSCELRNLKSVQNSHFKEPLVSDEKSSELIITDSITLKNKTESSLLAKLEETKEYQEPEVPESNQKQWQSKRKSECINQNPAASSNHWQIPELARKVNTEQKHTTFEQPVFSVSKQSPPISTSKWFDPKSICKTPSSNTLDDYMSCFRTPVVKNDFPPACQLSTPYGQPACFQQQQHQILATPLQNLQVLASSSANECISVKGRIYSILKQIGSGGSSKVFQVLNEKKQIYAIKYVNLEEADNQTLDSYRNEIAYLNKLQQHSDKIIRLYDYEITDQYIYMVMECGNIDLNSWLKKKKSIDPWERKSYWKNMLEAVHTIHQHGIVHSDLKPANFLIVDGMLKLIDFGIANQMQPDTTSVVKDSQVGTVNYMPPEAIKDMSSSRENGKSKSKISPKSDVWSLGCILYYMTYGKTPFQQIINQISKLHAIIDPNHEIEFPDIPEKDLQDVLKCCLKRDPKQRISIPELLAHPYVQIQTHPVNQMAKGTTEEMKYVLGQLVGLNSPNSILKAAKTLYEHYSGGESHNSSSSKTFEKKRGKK
# Assay: biochemical
# Method: Measurement of Inhibition of MPS1 Kinase
# (5 μM), ATP (10 μM), either DMSO (1% v/v) or the test compound (in the range 0.25 nM-100 μM in 1% DMSO) and assay buffer (50 mM HEPES (pH 7.0), 0.02% NaN3, 0.01% BSA, 0.1 mM Orthovandate, […], 1 μM DTT, Roche protease inhibitor). The reaction was carried out for 60 min at room temperature and stopped by the addition of buffer (10 μl) containing 20 mM EDTA, 0.05% (v/v) Brij-35, in 0.1M HEPES-buffered saline (Free acid, Sigma, UK). The plate was read on a Caliper EZ reader II (Caliper Life Sciences).
# The % inhibition of the compounds is calculated relative to the means of selected control wells. […] The % inhibitions at each concentration are then fitted to a 4 parameter logistic fit: y=(a+((b−a)/(1+((c/x^d)))) where a=asym min, b=asym max, c=IC50 and d=hill coefficient
row,IC50 [nM],SMILES
1,287,CC(C)OC(=O)n1c(-c2cnn(C)c2)cc2cnc(Nc3cc(-c4cnn(C)c4)ccc3Cl)cc21 [Example 89]
2,77,CC(=O)c1ccccc1Nc1cc2c(cn1)cc(-c1cnn(C)c1)n2C(=O)OC(C)(C)C [Example 9]
3,9,Cn1cc(-c2cc3cnc(Nc4ccc(-c5cncs5)cc4Cl)cc3n2C(=O)OC(C)(C)C)cn1 [Example 24]
4,75,COc1cc(-c2ccc(Nc3cc4c(cn3)cc(-c3cnn(C)c3)n4C(=O)OC(C)(C)C)c(Cl)c2)ccn1 [Example 46]
5,111,COc1cc(CN(C)C(=O)OC(C)(C)C)ccc1Nc1cc2c(cn1)cc(-c1cnn(C)c1)n2C(=O)OC(C)(C)C [Example 34]
6,32,Cn1cc(-c2cc3cnc(Nc4ccccc4C#N)cc3n2C(=O)OC(C)(C)C)cn1 [Example 54]
7,2,COc1cc(-c2cn(C)nc2C)ccc1Nc1cc2c(cn1)cc(-c1cnn(C)c1)n2C(=O)OC(C)C [Example 103]
8,8,COc1cc(CN(C)C)ccc1Nc1cc2c(cn1)cc(-c1cnn(C)c1)n2C(=O)OC(C)(C)C [Example 35]
9,6,Cn1cncc1-c1ccc(Nc2cc3c(cn2)cc(-c2cnco2)n3C(=O)OC(C)(C)C)c(Cl)c1 [Example 91]
10,156,Cn1cc(-c2cc3cnc(Nc4cccc(OCC#N)c4)cc3n2C(=O)OC(C)(C)C)cn1 [Example 36]
11,9,COCCNC(=O)c1ccc(Nc2cc3c(cn2)cc(-c2cnn(C)c2)n3C(=O)OC(C)(C)C)c(OC)c1 [Example 11]
12,7,Cc1nn(C)cc1-c1ccc(Nc2cc3c(cn2)cc(-c2cnn(C)c2)n3C(=O)OC(C)(C)C)c(Cl)c1 [Example 21]
13,20,CN(C)C(=O)c1cc(Cl)c(Nc2cc3c(cn2)cc(-c2cnn(C)c2)n3C(=O)OC(C)(C)C)c(Cl)c1 [Example 13]
14,16,COc1ccc(-c2ccc(Nc3cc4c(cn3)cc(-c3cnn(C)c3)n4C(=O)OC(C)(C)C)c(Cl)c2)cn1 [Example 48]

# The remaining lines, values behind:
row,SMILES,IC50 [nM]
1,"COc1cc(C(=O)NC2CCN(C)CC2)ccc1Nc1cc2[nH]c(-c3cnn(C)c3)cc2cn1 [Example 111, 3-Methoxy-4-((2-(1-methyl-1H-pyrazol-4-yl)-1H-pyrrolo[3,2-c]pyridin-6-yl)amino)-N-(1-methylpiperidin-4-yl)benzamide]",42
2,"Cn1cc(-c2cc3cnc(Nc4ccc(S(C)(=O)=O)cc4Cl)cc3[nH]2)cn1 [Example 131, N-(2-Chloro-4-(methylsulfonyl)phenyl)-2-(1-methyl-1H-pyrazol-4-yl)-1H-pyrrolo[3,2-c]pyridin-6-amine]",24
3,"COc1ccc(Nc2cc3[nH]c(-c4cnn(C)c4)cc3cn2)c(F)c1 [Example 155, N-(2-Fluoro-4-methoxyphenyl)-2-(1-methyl-1H-pyrazol-4-yl)-1H-pyrrolo[3,2-c]pyridin-6-amine]",53
4,"COc1cc(F)ccc1Nc1cc2[nH]c(-c3cnn(C)c3)cc2cn1 [Example 157, N-(4-Fluoro-2-methoxyphenyl)-2-(1-methyl-1H-pyrazol-4-yl)-1H-pyrrolo[3,2-c]pyridin-6-amine]",119
5,"Cc1ncc(-c2ccc(Nc3cc4[nH]c(-c5cnn(C)c5)cc4cn3)c(Cl)c2)n1C [Example 152, N-(2-Chloro-4-(1,2-dimethyl-1H-imidazol-5-yl)phenyl)-2-(1-methyl-1H-pyrazol-4-yl)-1H-pyrrolo[3,2-c]pyridin-6-amine]",5
6,"Cn1cc(-c2cc3cnc(Nc4ccc(-c5ccnn5C)cc4Cl)cc3[nH]2)cn1 [Example 149, N-(2-Chloro-4-(1-methyl-1H-pyrazol-5-yl)phenyl)-2-(1-methyl-1H-pyrazol-4-yl)-1H-pyrrolo[3,2-c]pyridin-6-amine]",22
7,"c1cc(Nc2cc3[nH]c(-c4cn[nH]c4)cc3cn2)ccc1CN1CCOCC1 [Example 171, N-(4-(Morpholinomethyl)phenyl)-2-(1H-pyrazol-4-yl)-1H-pyrrolo[3,2-c]pyridin-6-amine]",9
8,"CCN(C)C(=O)c1ccc(Nc2cc3[nH]c(-c4cnn(C)c4)cc3cn2)c(Cl)c1 [Example 144, 3-Chloro-N-ethyl-N-methyl-4-(2-(1-methyl-1H-pyrazol-4-yl)-1H-pyrrolo[3,2-c]pyridin-6-ylamino)benzamide]",11
9,"CS(=O)(=O)n1c(-c2cn[nH]c2)cc2cnc(Nc3ccc(F)cc3)cc21 [Example 187, N-(4-fluorophenyl)-1-(methylsulfonyl)-2-(1H-pyrazol-4-yl)-1H-pyrrolo[3,2-c]pyridin-6-amine]",6430
10,"FC(F)(F)c1ccc(Nc2cc3[nH]c(-c4cn[nH]c4)cc3cn2)cc1 [Example 161, 2-(1H-Pyrazol-4-yl)-N-(4-(trifluoromethyl)phenyl)-1H-pyrrolo[3,2-c]pyridin-6-amine]",1060
11,"N#Cc1ccc(Nc2cc3[nH]c(-c4cn[nH]c4)cc3cn2)cc1 [Example 177, 4-(2-(1H-pyrazol-4-yl)-1H-pyrrolo[3,2-c]pyridin-6-ylamino) benzonitrile]",150
12,"CNCc1ccc(Nc2cc3[nH]c(-c4cnn(C)c4)cc3cn2)c(OC)c1 [Example 138, N-(2-methoxy-4-((methylamino)methyl)phenyl)-2-(1-methyl-1H-pyrazol-4-yl)-1H-pyrrolo[3,2-c]pyridin-6-amine]",31
13,"COc1cc(OC2CCN(C)CC2)ccc1Nc1cc2[nH]c(-c3cn[nH]c3)cc2cn1 [Example 166, N-(2-Methoxy-4-(1-methylpiperidin-4-yloxy)phenyl)-2-(1H-pyrazol-4-yl)-1H-pyrrolo[3,2-c]pyridin-6-amine]",7
14,"Cn1cc(-c2ccc(Nc3cc4[nH]c(-c5cnn(C)c5)c(Cl)c4cn3)c(Cl)c2)cn1 [Example 194, 3-Chloro-N-(2-chloro-4-(1-methyl-1H-pyrazol-4-yl)phenyl)-2-(1-methyl-1H-pyrazol-4-yl)-1H-pyrrolo[3,2-c]pyridin-6-amine]",128
15,"Fc1ccc(Nc2cc3[nH]c(-c4cn[nH]c4)cc3cn2)nc1 [Example 189, N-(5-fluoropyridin-2-yl)-2-(1H-pyrazol-4-yl)-1H-pyrrolo[3,2-c]pyridin-6-amine]",159
16,Cc1ccc(-n2c(-c3cnn(C)c3)cc3cnc(Nc4ccc(C(=O)N(C)C)cc4Cl)cc32)nc1 [Example 92],43
17,"COc1ccc(C(=O)N(C)C)cc1Nc1cc2[nH]c(-c3cnn(C)c3)cc2cn1 [Example 114, 4-Methoxy-N,N-dimethyl-3-(2-(1-methyl-1H-pyrazol-4-yl)-1H-pyrrolo[3,2-c]pyridin-6-ylamino)benzamide]",497
18,"CN(C)C(=O)c1ccc(Nc2cc3[nH]c(-c4cnn(C)c4)cc3cn2)c(OC(F)(F)F)c1 [Example 113, N,N-Dimethyl-4-(2-(1-methyl-1H-pyrazol-4-yl)-1H-pyrrolo[3,2-c]pyridin-6-ylamino)-3-(trifluoromethoxy)benzamide]",68
19,"CNC(=O)c1ccc(Nc2cc3[nH]c(-c4cnn(C)c4)cc3cn2)c(Cl)c1 [Example 134, 3-Chloro-N-methyl-4-(2-(1-methyl-1H-pyrazol-4-yl)-1H-pyrrolo[3,2-c]pyridin-6-ylamino)benzamide]",20
20,"CN(C)C(=O)c1ccc(Nc2cc3[nH]c(-c4cnco4)c(Cl)c3cn2)c(Cl)c1 [Example 178, 3-Chloro-4-(3-chloro-2-(oxazol-5-yl)-1H-pyrrolo[3,2-c]pyridin-6-ylamino)-N,N-dimethylbenzamide]",3
21,"COc1ccc(Nc2cc3[nH]c(-c4cnn(CC(=O)N(C)C)c4)cc3cn2)c(OC)c1 [Example 135, 2-(4-(6-(2,4-Dimethoxyphenylamino)-1H-pyrrolo[3,2-c]pyridin-2-yl)-1H-pyrazol-1-yl)-N,N-dimethylacetamide]",821
22,"CN(C)C(=O)c1ccc(Nc2cc3[nH]c(-c4cnn(C)c4)c(Cl)c3cn2)c(Cl)c1 [Example 190, 3-Chloro-4-(3-chloro-2-(1-methyl-1H-pyrazol-4-yl)-1H-pyrrolo[3,2-c]pyridin-6-ylamino)-N,N-dimethylbenzamide]",8.4
23,"Cn1cc(-c2ccc(Cl)c(Nc3cc4[nH]c(-c5cnn(C)c5)cc4cn3)c2)cn1 [Example 184, N-(2-Chloro-5-(1-methyl-1H-pyrazol-4-yl)phenyl)-2-(1-methyl-1H-pyrazol-4-yl)-1H-pyrrolo[3,2-c]pyridin-6-amine]",548
24,Cn1cc(-c2cc3cnc(Nc4ccc(-c5cncn5C)cc4Cl)cc3n2C(=O)OC2CCCC2)cn1 [Example 78],11
